#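 How tested: cells in 96-well plates exposed to compound for 48 hours at five concentrations. GI50: concentration for 50% inhibition of growth.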 Activity calls are given as the source filed them. Cut-off read from the data, not from the text of the source: active = GI50 up to about 1.1 µM and inactive = higher.
# What was measured:
# Assay in all cases: DTP human tumour cell line panel, 48 h
# DMS-273 = test system: DMS-273
# HOP-18 = test system: HOP-18
# RXF 631 = test system: RXF 631
# SNB-78 = test system: SNB-78
# XF498 = test system: XF498
# BT-549 = test system: BT-549
# Hs-578T = test system: Hs-578T
# MDA-N = test system: MDA-N
# PC-3 = test system: PC-3
Structure (SMILES),GI50 (DMS-273),GI50 (HOP-18),GI50 (RXF 631),GI50 (SNB-78),GI50 (XF498),GI50 (BT-549),GI50 (Hs-578T),GI50 (MDA-N),GI50 (PC-3)
COc1cc2cc(OC(C)=O)c3cc4c(cc3c2c(OC)c1OC)OCO4,> 100 µM (inactive),> 100 µM (inactive),> 100 µM (inactive),> 100 µM (inactive),> 100 µM (inactive),–,–,–,–
Nc1nncs1,450 µM (inactive),3030 µM (inactive),–,3240 µM (inactive),879 µM (inactive),1940 µM (inactive),1620 µM (inactive),1950 µM (inactive),2610 µM (inactive)
CC1C(=O)C(C)C(c2ccco2)N(N=O)C1c1ccco1 (stereo not given),> 100 µM (inactive),> 67.1 µM (inactive),–,> 100 µM (inactive),< 0.01 µM (active),–,–,–,–
O=C(CCn1[nH]c(=O)c(Cl)c(Cl)c1=O)NOCCCc1ccccc1,> 100 µM (inactive),> 100 µM (inactive),> 100 µM (inactive),> 100 µM (inactive),> 100 µM (inactive),–,–,–,–
O=C1C=CC(CC(=O)c2ccc3ccccc3c2)O1 (stereo not given),20 µM (inactive),35 µM (inactive),–,34.9 µM (inactive),66.5 µM (inactive),–,–,–,–
CC1=C2C(O)C(C(C)C(=O)N(C)C)CCC2(C)C=CC1=O (stereo not given),> 100 µM (inactive),> 100 µM (inactive),–,> 100 µM (inactive),> 100 µM (inactive),–,–,–,–
O=c1[nH]cnc(NC2C=C(CO)C(O)C2O)c1[N+](=O)[O-] (stereo not given),> 47.2 µM (inactive),> 100 µM (inactive),–,> 100 µM (inactive),> 100 µM (inactive),–,–,–,–
CN(C)CCNC(=O)c1cccc2ncc(-c3ccccc3)nc12,5.09 µM (inactive),5.85 µM (inactive),9.59 µM (inactive),8.89 µM (inactive),–,–,–,–,–
CCC(=O)N1C(=S)SC[C@H]1C(=O)OC,> 100 µM (inactive),> 100 µM (inactive),–,> 100 µM (inactive),7.4 µM (inactive),–,–,–,–
CN(/N=C/c1cccc2cccnc12)c1c([N+](=O)[O-])cc([N+](=O)[O-])cc1[N+](=O)[O-],7.6 µM (inactive),> 100 µM (inactive),> 100 µM (inactive),> 100 µM (inactive),> 100 µM (inactive),–,–,–,–
CCOP1(=O)C=C(C)C(Cl)=C(C)C1 (stereo not given),13.6 µM (inactive),68.7 µM (inactive),2.75 µM (inactive),–,26.8 µM (inactive),–,–,–,–
O=C1CCC(=O)C1=NNc1ccccc1,> 100 µM (inactive),> 100 µM (inactive),> 100 µM (inactive),> 100 µM (inactive),–,–,–,–,–
Cc1ccccc1NC(=O)C1C(=O)N(c2ccccc2C)C(=O)/C1=N\N (stereo not given),–,> 100 µM (inactive),> 100 µM (inactive),> 100 µM (inactive),–,–,–,–,–
CCOC(=O)C(=O)Nc1ccc(C)c(C)c1,34.8 µM (inactive),–,> 100 µM (inactive),> 100 µM (inactive),–,–,–,–,–
O=C(/C=C/c1ccccc1O)c1cccc2ccccc12,54.5 µM (inactive),28.1 µM (inactive),> 100 µM (inactive),> 100 µM (inactive),25.8 µM (inactive),–,–,–,–
N=C(N)SCc1cn2ccccc2n1,> 100 µM (inactive),> 100 µM (inactive),–,> 100 µM (inactive),> 100 µM (inactive),–,–,–,–
CCCCNCCCNCCCNC(=O)c1csc(-c2csc(CCNC(=O)C(NC(=O)C(C)C(O)C(C)NC(=O)C(NC(=O)c3nc(C(CC(N)=O)NCC(N)C(N)=O)nc(N)c3C)C(OC3OC(CO)C(O)C(O)C3OC3OC(CO)C(O)C(OC(N)=O)C3O)c3c[nH]cn3)C(C)O)n2)n1 (stereo not given),< 0.0458 µM (active),37.7 µM (inactive),3.58 µM (inactive),> 73.3 µM (inactive),–,> 50 µM (inactive),8.79 µM (inactive),–,23.6 µM (inactive)
O=C1c2cccc3c(Cl)ccc(c23)C(=O)N1CCCN1CCN(CCCN2C(=O)c3cccc4c(Cl)ccc(c34)C2=O)CC1,> 100 µM (inactive),> 100 µM (inactive),76.7 µM (inactive),90.8 µM (inactive),> 100 µM (inactive),–,–,–,–
OC(c1cc2ccccc2[nH]1)C(O)(c1cc2ccccc2[nH]1)c1cc2ccccc2[nH]1 (stereo not given),17.9 µM (inactive),–,17.4 µM (inactive),–,–,–,–,–,–
Cc1ccc(SCC(=O)C2=C(O)CCCC2=O)cc1,> 100 µM (inactive),> 100 µM (inactive),> 100 µM (inactive),> 100 µM (inactive),> 100 µM (inactive),–,–,–,–
O=C1/C(=C/c2ccc(Br)cc2)CCC/C1=C\c1ccc(Br)cc1,3.57 µM (inactive),13.6 µM (inactive),5.05 µM (inactive),18.7 µM (inactive),21.8 µM (inactive),–,–,–,–
C=C1C(=O)O[C@@H]2[C@H]1CCC(C)=C1C=CC(=O)[C@]12C,17.3 µM (inactive),15.9 µM (inactive),11.3 µM (inactive),4.61 µM (inactive),–,–,–,–,–
O=C1c2cccc(O)c2C(=O)c2c(O)cc(CO)cc21 [ALOE-EMODIN],27.5 µM (inactive),> 100 µM (inactive),67.5 µM (inactive),> 100 µM (inactive),> 100 µM (inactive),–,–,–,–
CCC1(c2ccncc2)CCC(=O)NC1=O (stereo not given) [ROGLETIMIDE],–,–,> 100 µM (inactive),> 100 µM (inactive),> 100 µM (inactive),–,–,–,–
Nc1nc2[nH]cnc2c(=S)[nH]1 [THIOGUANINE],0.445 µM (active),5.64 µM (inactive),0.527 µM (active),2.23 µM (inactive),1.09 µM (active),3.04 µM (inactive),6.28 µM (inactive),1.01 µM (active),1.92 µM (inactive)

# Source: ChEMBL document CHEMBL1201862, “PubChem BioAssay data set” (2004)
